Laboratory results from US20060067991A1 (priority 2004, published 2006).

Experiments:
[1] = tested on: enzymes produced by S. aureus MN8; test: Breakdown of test compounds by enzymes produced by S. aureus MN8, GC/MS of culture fluid; assay type: in vitro ADME; details: concentrations of b130; for course of the concentration of the dominant compound over time: GC/MS at 3, 6, 9 and 24 hours; for dominant compound found in the culture fluid: GC/MS, undiluted solutions at 3, 6, 9 and 24 hours
Description: (§1) The test compounds, in the desired concentrations, were placed in 100 mL of a growth medium in a sterile, 500 mL Corning Fleaker (Fisher Scientific, Pittsbury, Pa.). The growth medium and inoculum were prepared as in Example 1.
(§2) The test compounds were added to the growth medium in the amount necessary to obtain the desired final concentration.
(§3) Each fleaker was inoculated with the amount of inoculum determined as described above. The fleakers were capped with sterile aluminum foil and incubated at 35° C. in atmospheric air in a Lab-Line orbital water bath (available from VWR Scientific Products, McGaw Park, Ill.) at 180 rpm. Fifteen milliliter samples were removed at 3, 6, 9, and 24 hours. The optical density (595 nm) of the culture fluid was determined and the culture fluid collected at 24 hours was assayed for the number of colony forming units of S. aureus MN8 using standard plate count procedures.
In preparation for analysis of the integrity of the test compounds, the culture fluid was centrifuged at 3000 rpm at 2-10° C. for 15 minutes. The supernatant was filter sterilized through an AUTOVIAL 5 syringeless filter, […] pore size (available from Whatman, Inc., Clifton, N.J.). The resulting fluid was frozen at −70° C. in a FISHERBRAND (12 mm×75 mm) polystyrene culture tube (Fisher Scientific, Pittsburgh, Pa.) until chemical analysis could be performed.
Using an Agilent Technologies 5973N GC/MS, analysis was performed on undiluted solutions at 3, 6, 9, and 24 hours to evaluate the ability of S. aureus MN8 to breakdown the test compounds. Based on the analysis, the control sample, which had no test compounds added, comprised mostly acetic acid at all time intervals.

[2] = tested on: enzymes produced by S. aureus MN8; test: Breakdown of test compounds by S. aureus MN8, liquid chromatography of culture fluid; assay type: in vitro ADME; details: 6 hour and 24 hour samples, UV 230 nm
Description: as §1, §2, §3
In preparation for analysis of the integrity of the test compounds, the culture fluid was centrifuged at 3000 rpm at 2-10° C. for 15 minutes. […]
Additional analysis of the 6 hour and 24 hour samples was conducted by liquid chromatography. […] The dilutions were then analyzed using an ion exclusion column to achieve the separation. Detection of the compounds was accomplished through UV absorbance at 230 nm.

Row | SMILES | course of the concentration of the dominant compound over time [1] | dominant compound found in the culture fluid [1] | breakdown to the active species [2]
1 | CC(C)CC(NC(=O)c1ccccc1)C(=O)O (racemic) [N-benzoyl-DL-leucine, N-Benzoyl-DL-Leucine] | decreasing concentration over time | benzoic acid | breakdown to benzoic acid
2 | OCc1ccccc1 [Benzyl alcohol, benzyl alcohol] | decreased over time | benzyl alcohol | 
3 | O=C(O)c1ccccc1 [benzoic acid] | decreased over time | benzoic acid | 
